From patent US10745487B2, “Method of treating cancer by administering an anti-LGR5 monoclonal antibody” (Bionomics Limited, priority 2016, dated 2020)

How the values were obtained:
[1] = test system: LGR5 expression in CRC cell lines; test: LGR5 expression by flow cytometry in treated CRC cell lines; type: cell-based, human; settings: panel DLD1, HCT116, LS174t, LoVo, SW48, SW480, SW620; 1 um, 72 hrs
Experimental: A panel of CRC cell lines including DLD1, HCT116, LS174t, LoVo, SW48, SW480 and SW620 were treated with a PI3K/mTOR dual inhibitor (NVP) or 2 different cytotoxic agents including SN38 (active metabolite of Irinotecan) or 5FU (5 fluorouracil). Cells were treated with the above agents at 1 um and were harvested after 72 hrs. Cells were then stained with anti-LGR5 Mab conjugated to Alexa Fluor647 and the data were analyzed by flow cytometry using a FACScalibur.

[2] = test system: LGR5 expression in pancreatic cell lines; test: LGR5 expression by flow cytometry in treated pancreatic cell lines; type: cell-based, human; settings: panel AsPc1, HPAFII, PANC1, BxPC3, CFPAC, PANC10.05, Capan2, SW1990
Experimental: The pancreatic cell lines that were tested include: AsPc1, HPAFII, PANC1, BxPC3, CFPAC, PANC10.05, Capan2 and SW1990.

[3] = test system: LGR5 expression in JH109, ASPC1 and PANC1 tumors; test: QPCR of LGR5 expression in treated pancreatic tumors; type: in vivo, mice; settings: standard of care: Gemzar and Abraxane in JH109, Gemzar alone in PANC1 and ASPC1
Experimental: LGR5 expression in metastatic pancreatic patient derived xenografts was investigated using the quantitative polymerase chain reaction (QPCR). A sample of tumor tissue was flash frozen or added to a cryovial containing RNAlater (Qiagen, CA), and transferred to −70° C. after incubation at 4° C. for several hours. Total RNA was extracted using a Qiagen RNeasy extraction kit (Qiagen, CA), and cDNA was synthesized using a SuperScriptIII kit (Life Technologies, CA) and protocols provided by the manufacturer. Human LGR5 transcript abundance was measured using human specific LGR5 and GAPDH primers and the following thermal condition in the StepOne Thermocycler (Life Technologies, CA): 50° C. (2 min); 90° C. (2 min) and 40 cycles of 90° C. (15 sec) and 60° C. (1 min) and melt curve assessment (from 65° C.-95° C.). LGR5 abundance was quantified using 2^δCt equation.
LGR5 expression was investigated in a series of pancreatic tumors including JH109, ASPC1 and PANC1.

Row | Compound | LGR5 expression (flow cytometry) [1] | LGR5 expression (flow cytometry) [2] | LGR5 expression in tumors (QPCR) [3]
1 | CCc1c2c(nc3ccc(O)cc13)-c1cc3c(c(=O)n1C2)COC(=O)[C@]3(O)CC [SN38] | promoted LGR5 expression in HCT116, LS174t, SW48, SW480 and especially SW620 cells |  | 
2 | Nc1ccn([C@@H]2O[C@H](CO)[C@@H](O)C2(F)F)c(=O)n1 [gemcitabine, reference compound] |  | upregulates LGR5 in PANC1 | induction in LGR5 expression
3 | CC(=O)O[C@H]1C(=O)[C@@]2(C)[C@H]([C@H](OC(=O)c3ccccc3)[C@]3(O)C[C@H](OC(=O)[C@H](O)[C@@H](NC(=O)c4ccccc4)c4ccccc4)C(C)=C1C3(C)C)[C@]1(OC(C)=O)CO[C@@H]1C[C@@H]2O [taxol] |  | increased LGR5 expression in HPAFII | 
4 | O=c1[nH]cc(F)c(=O)[nH]1 [5FU, 5 fluorouracil] | did not induce LGR5 expression in any of these lines |  | 
